Test results reported in patent publication US9084818B2, “Topical dermal delivery compositions using self assembling nanoparticles with cetylated components” (CYMBIOTICS, INC., priority 2013, dated 2015).

Legend:
[1] = Minimum HLB needed for cetosome formation; format: physicochemical; conditions: surfactant HLB requirement to solubilize and stabilize within the cetosome
Method: Core components are also chosen with melting points between 40° to 75° C. This allows for thermal dissociation into the oil phase and strong affinity re-association as the temperature is reduced.

[2] = Pre-clinical pharmacokinetic feasibility study of oxybutynin cream on shaved rabbit backs; format: in vivo, rabbits
Method: Two levels of oxybutynin hydrochloride for use in the study were incorporated into the composition matrix: 5 mg/gm and 0.5 mg/ml. Three rabbits were chosen for each dosing. Animal backs were shaved were shaved 24 hrs prior to application. One gram was applied to the shaved area and rubbed in. This was covered by non-absorbent dressing. One milliliter of blood was collected from a marginal ear vein at baseline, 15 minutes, 1 hr, 6 hrs, 12 hrs and 24 hrs following dosing. Heparin was used as anticoagulant. Extracted samples were analyzed using an LC/MS-MS spectrometer (API 3000) with diazepam as an internal standard. Mobile phase was a 50:40:10 mixture (methanol:acetonitrile: 10 mM ammonium formate). The column used was a Phenomenex, Luna C18, 150×4.6 mm, 5 micron. Temperature for analysis was 30° C. with a flow rate of 1.0 ml/min with splitter with detection using ESI positive ion. Both oxybutynin and N-desethyl-oxybutynin were analyzed. N-desethyl-oxybutynin (DES) is a metabolite of oxybutynin considered to be associated with adverse secondary side effects.

[3] = Cream, 0.5 mg/ml, one gram topical, rabbit plasma, mean
[4] = rabbit, in vivo, topical or ocular, 5 mg

Row | melting point [°C] | MINIMUM HLB NEEDED FOR CETOSOME FORMATION [1] | Molecule | other results
1 | 58 to 60 | 10 | CCCCCCCC/C=C\CCCCCCCC(=O)OCCCCCCCCCCCCCCCC [Cetyl Oleate] | 
2 | 45 to 52 | 10 | CCCCCC/C=C\CCCCCCCC(=O)OCCCCCCCCCCCCCCCC [Cetyl Palmitoleate] | 
3 | 45 to 48 | 10 | CCCCCCCCCCCCCCCCOC(=O)CCCCCCCCCCCCC [Cetyl Myristate] | 
4 |  | 10 | CCCCCCCCCCCCCCCCOC(=O)CCCCCCCCCCCCCCC [Cetyl Palmitate] | 
5 | 62 to 70 | 10 | CCCCCCCCCCCCCCCCCC(=O)OCCCCCCCCCCCCCCCC [Cetyl Stearate] | 
6 | 43 to 45 | 10 | CCCCCCCCCCCCCCCCOC(=O)CCCCCCCCCCC [Cetyl Laurate] | 
7 | 52 to 60 | 10 | CCCCCCCCCCCCCCCCOC(=O)CCCCCCC [Cetyl Octanoate] | 

The next lines start with the molecule.

Row | Molecule | melting point [°C] | MINIMUM HLB NEEDED FOR CETOSOME FORMATION [1] | other results
8 | oxybutynin |  |  | AUC 0-24 hr [2, 3]: 2.512 ng·h/mL; Cmax [2, 3]: 0.836 ng/mL; Tmax [2, 3]: 12 h
9 | CCN(CC)CC#CCOC(=O)C(O)(c1ccccc1)C1CCCCC1 (stereo not shown) [Oxybutynin, oxybutynin] |  |  | AUC(0-t) [2, 4]: 22 ng·h/mL; Cmax [2, 4]: 9.33 ng/mL; Tmax [2, 4]: 6 h
10 | Cetyl Isomyristate |  | 10 | 
11 | CCNCC#CCOC(=O)C(O)(c1ccccc1)C1CCCCC1 (stereo not shown) [DES, N-desethyl-oxybutynin] |  |  | detection of the metabolite in plasma during the 24 hour period ([2]; either level of dose application): not detectable; Tmax ([2]; rabbit, in vivo, topical or ocular): <0.5 h
12 | CCCCCCCCCCCCCCCCOC(=O)CCCCCCCCC [Cetyl Decanoate] | 40 to 44 | 10 | 
13 | CCCCCCCCCCCCCCCCO [Cetyl Alcohol] |  | 15.5 | 
